Data as given in patent US6426339B1, “Formulations and methods for providing prolonged local anesthesia” (Children's Medical Center Corporation, priority 1996, dated 2002).
Entries after “also recorded” stand apart in the source; their conditions may differ.

Key:
sciatic nerve [1] = experiment: Motor block: additives in the injection fluid with bupivacaine microspheres (Table 2); assay type: in vivo, rat
Excerpt: The rats were behaviorally tested for sensory and motor anesthesia in a quiet observation room. Testing was only performed in rats showing appropriate baseline hot plate latencies after at least-one week of testing. In all testing conditions, the experimenter recording the behavior was unaware of the side containing the local anesthetic. To assess motor anesthesia, a 4-point scale based on visual observation was devised: (1) normal appearance, (2) intact dorsiflexion of foot with an impaired ability to splay toes when elevated by the tail, (3) toes and foot remained plantar flexed with no splaying ability, and (4) loss of dorsiflexion, flexion of toes, and impairment of gait. For graphing clarity, partial motor anesthesia equals a score of 2 and dense motor anesthesia is a score of either 3 or 4.
(§1) At least five rats were used in each test.
(§2) Sensory blockade or anesthesia effect was examined using art-known techniques. In addition, motor tests were performed at each time point to examined each rat's ability to hop and to place weight on it's hind leg by art-known techniques. Each leg was tested three times, and the latency of the contralateral leg was tested to provide a control. The animals were handled and cared for according to institution, state, and federal regulations.

sciatic nerve [2] = experiment: Sensory block: additives in the injection fluid with bupivacaine microspheres (Table 2); assay type: in vivo, rat; conditions: for sensory blockade latency: with bupivacaine microspheres, FIG. 5A
Description: Sensory anesthesia was measured by the time required for each rat to withdraw its hind paw from a 56° C. plate (IITC Life Science Instruments, Model 35-D, Woodland Hills, Calif.). The rats were allowed to adjust to their surroundings in a quiet room for at least 30 minutes before testing. The rats were held with a cloth gently. wrapped above their waist to restrain the upper extremities and obstruct vision. The rats were positioned to stand with one hind paw on a hot plate and the other on a room temperature plate. With a computer data collection system to (Apple IIe with a footpad switch), latency to withdraw each hind paw to the hot plate was recorded by alternating paws and allowing at least fifteen seconds of recovery between each measurement. If no withdrawal occurred from the hot plate within 12 seconds, the trial was terminated to prevent injury and the termination time was recorded. Testing ended after five measurements per side, the high and low points were disregarded, and the mean of the remaining three points was calculated for each side. Animals were handled in accordance with institutional, state and federal guidelines.
as §1, §2

[3] = 0.05% in the suspending medium
Description: Male Sprague-Dawley Charles River Rats, weighing between 200 and 350 grams were used to test the ability of each additive to prolong blockade or anesthesia effect. 150 mg of bupivacaine per kg of rat and a known concentration of each of the additives were placed in 0.6 mls of injection vehicle (5 g/L medium molecular weight carboxymethylcellulose, 1 g/L Tween 80). If the additive was a solid, it was dissolved in ethanol and aliquots which varied in concentrations from 0.0220 mg/kg of rat, and added to the injection fluid. If the additive was in liquid form, it was added directly to the injection fluid. The microsphere/additive mixture was vortexed (Scientific Industries Vortex Genie®) at maximum speed for three minutes prior to injection. The injection was performed while the rats were under general anesthetic, by locating the greater trochanter and injecting slightly below and proximal to it. At least five rats were used in each test.

sciatic nerve [4] = experiment: Sciatic blockade by liquid bupivacaine and/or dexamethasone in solution (Table 1); assay type: in vivo, rat
Description: as §1, §2

sciatic nerve [5] = experiment: Restoration of waning sensory anesthesia by dexamethasone (hot plate latency); assay type: in vivo, rat; conditions: 0.032 mg/kg injected at the original site 6 hours after bupivacaine microspheres
Description: Sensory anesthesia was measured by the time required for each rat to withdraw its hind paw from a 56° C. plate (IITC Life Science Instruments, Model 35-D, Woodland Hills, Calif.). The rats were allowed to adjust to their surroundings in a quiet room for at least 30 minutes before testing. The rats were held with a cloth gently. wrapped above their waist to restrain the upper extremities and obstruct vision. The rats were positioned to stand with one hind paw on a hot plate and the other on a room temperature plate. With a computer data collection system to (Apple IIe with a footpad switch), latency to withdraw each hind paw to the hot plate was recorded by alternating paws and allowing at least fifteen seconds of recovery between each measurement. If no withdrawal occurred from the hot plate within 12 seconds, the trial was terminated to prevent injury and the termination time was recorded. Testing ended after five measurements per side, the high and low points were disregarded, and the mean of the remaining three points was calculated for each side. […]
Sensory latency was determined by the hot plate foot withdrawal method described above. […]

[6] = additive 0.032 mg/Kg rat with bupivacaine microspheres
[7] = additive 0.25 mg/Kg rat with bupivacaine microspheres
[8] = additive 0.8 mg/Kg rat with bupivacaine microspheres
[9] = additive 2.0 mg/Kg rat with bupivacaine microspheres
[10] = in the suspending medium with bupivacaine microspheres
[11] = additive 0.1 mg/Kg rat with bupivacaine microspheres
[12] = additive 3.1 mg/Kg rat with bupivacaine microspheres
[13] = additive 0.01 mg/Kg rat with bupivacaine microspheres
[14] = additive 0.125 mg/Kg rat with bupivacaine microspheres
[15] = additive 1.25 mg/Kg rat with bupivacaine microspheres
[16] = additive 10 mg/Kg rat with bupivacaine microspheres
[17] = additive 6.3 mg/Kg rat with bupivacaine microspheres
[18] = additive 2.1 mg/Kg rat with bupivacaine microspheres
[19] = additive 20 mg/Kg rat with bupivacaine microspheres
[20] = additive 1.0 mg/Kg rat with bupivacaine microspheres
[21] = additive 1.7 mg/Kg rat with bupivacaine microspheres
[22] = additive 0.02 mg/Kg rat with bupivacaine microspheres
[23] = additive 0.14 mg/Kg rat with bupivacaine microspheres

C[C@H]1C[C@H]2[C@@H]3CCC4=CC(=O)C=C[C@]4(C)[C@@]3(F)[C@@H](O)C[C@]2(C)[C@@]1(O)C(=O)CO [Betamethasone, betamethasone]
Motor block (sciatic nerve [1]; [6]): 15.0 ± 4.0 h | Motor block (sciatic nerve [1]; [7]): 38.0 ± 11.0 h | Motor block (sciatic nerve [1]; [8]): 39.0 ± 5.0 h | Motor block (sciatic nerve [1]; [9]): 39.0 ± 11.0 h | Sensory block (sciatic nerve [2]; [6]): 19.0 ± 4.0 h | Sensory block (sciatic nerve [2]; [7]): 36.0 ± 10.0 h | Sensory block (sciatic nerve [2]; [8]): 46.0 ± 7.0 h | Sensory block (sciatic nerve [2]; [9]): 44.0 ± 13.0 h | duration of prolonged blockade or local anesthesia effect (sciatic nerve [2]; [10]): up to 45 hours

CC(C)CCC[C@@H](C)[C@H]1CC[C@H]2[C@@H]3CC=C4C[C@@H](O)CC[C@]4(C)[C@H]3CC[C@]12C [Cholesterol]
Motor block (sciatic nerve [1]; [11]): 4.0 ± 1.0 h | Motor block (sciatic nerve [1]; [12]): 5.0 ± 1.0 h | prolongation of blockade compared with bupivacaine microspheres (in words) (sciatic nerve [2]; 0.3 mg/kg incorporated into bupivacaine loaded microspheres): did not result in a prolongation of blockade or anesthesia effect | Sensory block (sciatic nerve [2]; [11]): 4.0 ± 0.4 h | Sensory block (sciatic nerve [2]; [12]): 8.0 ± 3.0 h

CNC[C@H](O)c1ccc(O)c(O)c1 [Epinephrine]
Motor block (sciatic nerve [1]; [13]): 12.0 ± 4.0 h | Motor block (sciatic nerve [1]; [11]): 11.0 ± 3.0 h | Sensory block (sciatic nerve [2]; [13]): 12.0 ± 6.0 h | Sensory block (sciatic nerve [2]; [11]): 14.0 ± 5.0 h | degree of prolongation of blockade (in words) (sciatic nerve [2]; [10]): did not substantially prolong | systemic toxicity (in words) [3]: considerable systemic toxicity, but no deaths

C[C@]12CC[C@@H]3c4ccc(O)cc4CC[C@H]3[C@@H]1CC[C@@H]2O [Estradiol]
Motor block (sciatic nerve [1]; [14]): 12.0 ± 6.0 h | Motor block (sciatic nerve [1]; [15]): 9.0 ± 2.0 h | Sensory block (sciatic nerve [2]; [14]): 11.0 ± 6.0 h | Sensory block (sciatic nerve [2]; [15]): 8.0 ± 1.0 h | degree of prolongation of blockade (in words) (sciatic nerve [2]; [10]): no blockade-prolonging effect

C[C@]12CCC(=O)C=C1CC[C@@H]1[C@@H]2[C@@H](O)C[C@@]2(C)[C@H]1CC[C@]2(O)C(=O)CO [Hydrocortisone, hydrocortisone]
Motor block (sciatic nerve [1]; [11]): 10.0 ± 3.0 h | Motor block (sciatic nerve [1]; [15]): 16.0 ± 3.0 h | Motor block (sciatic nerve [1]; [16]): 31.0 ± 8.0 h | Sensory block (sciatic nerve [2]; [11]): 10.0 ± 3.0 h | Sensory block (sciatic nerve [2]; [15]): 15.0 ± 5.0 h | Sensory block (sciatic nerve [2]; [16]): 36.0 ± 10.0 h | degree of prolongation of blockade (in words) (sciatic nerve [2]; [10]): mild, but statistically significant prolongation; also recorded: cannot be made as effective as dexamethasone

O=C(c1ccccc1)c1ccc2n1CCC2C(=O)O (stereo not shown) [Ketoralac]
Motor block (sciatic nerve [1]; [9]): 7.0 ± 0.4 h | Motor block (sciatic nerve [1]; [17]): 10.0 ± 4.0 h | Sensory block (sciatic nerve [2]; [9]): 6.0 ± 0.7 h | Sensory block (sciatic nerve [2]; [17]): 8.0 ± 2.0 h

C[C@H]1C[C@@H]2[C@H]([C@@H](O)C[C@@]3(C)[C@H]2CC[C@]3(O)C(=O)CO)[C@@]2(C)C=CC(=O)C=C12 [Methylprednisolone, methylprednisolone]
Motor block (sciatic nerve [1]; [11]): 13.0 ± 4.0 h | Motor block (sciatic nerve [1]; [18]): 28.0 ± 5.0 h | Motor block (sciatic nerve [1]; [19]): 33.0 ± 9.0 h | Sensory block (sciatic nerve [2]; [11]): 20.0 ± 5.0 h | Sensory block (sciatic nerve [2]; [18]): 28.0 ± 6.0 h | Sensory block (sciatic nerve [2]; [19]): 34.0 ± 11.0 h

CC(=O)[C@H]1CC[C@H]2[C@@H]3CCC4=CC(=O)CC[C@]4(C)[C@H]3CC[C@]12C [Progesterone]
Motor block (sciatic nerve [1]; [9]): 6.0 ± 1.0 h | Sensory block (sciatic nerve [2]; [9]): 8.0 ± 1.0 h

C[C@]12CC[C@H]3[C@@H](CCC4=CC(=O)CC[C@@]43C)[C@@H]1CC[C@@H]2O [Testosterone]
Motor block (sciatic nerve [1]; [20]): 6.0 ± 1.0 h | Motor block (sciatic nerve [1]; [21]): 15.0 ± 5.0 h | Sensory block (sciatic nerve [2]; [20]): 7.0 ± 2.0 h | Sensory block (sciatic nerve [2]; [21]): 15.0 ± 5.0 h | degree of prolongation of blockade (in words) (sciatic nerve [2]; [10]): mild prolongation

CCCCN1CCCCC1C(=O)Nc1c(C)cccc1C (stereo not shown) [bupivacaine]
LENGTH OF Blockade or anesthesia effect (sciatic nerve [4]; bupivacaine 3 mg/kg rat, no dexamethasone): 2 to 3 h | effect on duration of blockade obtained using bupivacaine microspheres (in words) (sciatic nerve [2]; addition of 0.005% (w/w) to the suspending medium): did not result in a prolongation

C[C@@H]1C[C@H]2[C@@H]3CCC4=CC(=O)C=C[C@]4(C)[C@@]3(F)[C@@H](O)C[C@]2(C)[C@@]1(O)C(=O)CO [dexamethasone]
LENGTH OF Blockade or anesthesia effect (sciatic nerve [4]; bupivacaine 3 mg/kg rat plus dexamethasone 0.16 mg/kg rat): 2 to 3 h | LENGTH OF Blockade or anesthesia effect (sciatic nerve [4]; bupivacaine 3 mg/kg rat plus dexamethasone 1.6 mg/kg rat): 2 to 3 h | LENGTH OF Blockade or anesthesia effect (sciatic nerve [4]; dexamethasone 0.16 mg/kg rat, no bupivacaine): 0 h | Motor block (sciatic nerve [1]; [22]): 19.0 ± 8.0 h | Motor block (sciatic nerve [1]; [23]): 38.0 ± 5.0 h | Motor block (sciatic nerve [1]; [9]): 34.0 ± 12.0 h | Sensory block (sciatic nerve [2]; [22]): 17.0 ± 11.0 h | Sensory block (sciatic nerve [2]; [23]): 47.0 ± 8.0 h | Sensory block (sciatic nerve [2]; [9]): 36.0 ± 19.0 h | sensory blockade latency (sciatic nerve [2]; after 50 hours): about 7 seconds | sensory blockade latency (sciatic nerve [2]; after 100 hours): about 2.5 seconds | sensory blockade latency (sciatic nerve [2]; initial): 12 s | hot plate sensory latency after restoration (sciatic nerve [5]): about 11 sec
